Numbered stars: 1 amine (or outer) side, 2 acyl side, 3 side chain; on linkers, the order of the positions; unused ones are H or OH. Square brackets hold non-standard residues; d marks the D form. Side chains are listed from the residue outwards. Peptide text beside a SMILES is read from it. * marks the point of attachment. Triazole(1,2,4-3-CO,5-NH) = O=C(c1n[nH]c(N[*:1])n1)[*:2]; Propanoyl(3-(4-F-phenyl)) = O=C(CCc1ccc(F)cc1)*; NH(4-amidinophenyl) = N=C(N)c1ccc(N*)cc1; dPhe(4-Cl) = N[C@H](Cc1ccc(Cl)cc1)C(=O)O; d1Nal = N[C@H](Cc1cccc2ccccc12)C(=O)O; d2Nal = N[C@H](Cc1ccc2ccccc2c1)C(=O)O; Lys(iPr) = CC(C)NCCCC[C@H](N)C(=O)O; NMeY = CN[C@@H](Cc1ccc(O)cc1)C(=O)O; d3Pal = N[C@H](Cc1cccnc1)C(=O)O; Suc = O=C(CCC(=O)[*:2])[*:1]; Nle = CCCC[C@H](N)C(=O)O; Sar = CNCC(=O)O

In this assay the target is T1, human LHRH receptor (Homo sapiens, UniProt P30968).
T1 sequence (P30968 1-328): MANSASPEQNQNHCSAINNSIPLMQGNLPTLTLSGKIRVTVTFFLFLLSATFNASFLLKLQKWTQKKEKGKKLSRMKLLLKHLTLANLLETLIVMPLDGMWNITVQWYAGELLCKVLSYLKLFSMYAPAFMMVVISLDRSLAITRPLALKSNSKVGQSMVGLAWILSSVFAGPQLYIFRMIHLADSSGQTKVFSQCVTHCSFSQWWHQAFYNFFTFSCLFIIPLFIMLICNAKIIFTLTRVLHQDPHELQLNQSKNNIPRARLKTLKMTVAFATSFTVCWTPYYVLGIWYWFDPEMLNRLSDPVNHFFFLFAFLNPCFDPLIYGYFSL
The experiment in a line: functional assay for antagonistic activity, fos-Luc luciferase reporter gene, stimulation with 1 nM [D-Trp6] LHRH. The arrangement: expressed in transfected cells. Format: cell-based. The conditions noted are these: cells stimulated with 1 nM [D-Trp6] LHRH for 6 h; bracket = number of independent experiments. As to the method: The assay for the functional characterization of antagonistic analogs of LH-RH was carried out, with some modifications, as described in Beckers et al., “Characterization of gonadotropin-releasing hormone analogs based on a sensitive cellular luciferase reporter gene assay” (1997) Analyt. Biochem. 251, 17-23. The assay uses a reporter gene made by fusing the c-fos immediate-early gene promoter to a DNA sequence encoding luciferase (Luc). A recombinant cell line that expresses the human LH-RH. receptor is stably transfected with the fos-Luc reporter gene. Transcription of the fos-Luc fusion gene and synthesis of the Luc protein is induced in the cells in a dose-dependent manner by LH-RH and other LH-RH agonists that bind and signal through the human LH-RH receptor. Peptide LH-RH antagonists such as the compounds of the invention bind to cellular LH-RH receptors and inhibit this stimulation. The antagonistic potency (IC50) of peptide LH-RH antagonists as determined by the assay generally correlates well with the binding affinity (KD) of the LH-RH antagonists for LH-RH receptor as determined from ligand binding experiments.
Cells containing the fos-Luc reporter gene that express the human LH-RH receptor were cultured for 24 h in microtitre plates using DMEM with additives and 1% (v:v) FCS (10,000 cells per well). The cells were then stimulated with 1 nM [D-Trp^6] LHRH for 6 h. Peptide LH-RH antagonist compounds according to the invention were added before the stimulation, and the cells were lysed at the end for quantification of the cellular Luc activity. The calculation of the IC50 values from dose-effect curves was carried out by non-linear regression analysis using the Hill model (Programme EDX 2.0 from C. Grunwald, Arzneimittelwerk Dresden).
The quantification of the Luc activity was carried out in duplicate essentially as described (Promega Technical Bulletins #101/161) using the respective luciferase assay system (Promega E4030). Owing to addition of coenzyme A (CoA), an oxidation of luciferyl-CoA takes place with advantageous kinetics. After the removal of the culture medium from the microtitre plate, the cells were lysed by addition of 100 μl of lysis buffer (25 mM tris-phosphate pH 7.8, 2 mM dithiothreitol, 2 mM 1,2-diaminocyclohexane-N,N,N′,N′-tetraacetic acid (CDTA), 10% (v:v) glycerol, 1% (v:v) Triton X-100). After incubation at room temperature for 15 min, 10 μl of cell lysate were transferred into a white microtitre plate suitable for luminometric detection (Dynatech). The enzymatic reaction was initiated by addition of 50 μl of assay buffer (20 mM tricine pH 7.8, 1.07 mM (MgCO3)4Mg(OH)2, 2.67 mM MgSO4, 0.1 mM ethylene-diaminetetraacetic acid (EDTA), 33.3 mM dithiothreitol, 270 μM coenzyme A, 470 μM glow-worm (Photinus pyralis) luciferin, 530 μM rATPNa2). After one minute, the luminescence was determined for a total time of one second with a signal half-life of five minutes using the EG&G Berthold MicroLumat LB 96 P.
Molecule `CC(C)C[C@H](NC(=O)[C@@H](CCCCNC(=O)c1nc(N)n[nH]1)NC(=O)[C@H](Cc1ccc(O)cc1)N(C)C(=O)[C@H](CO)NC(=O)[C@@H](Cc1cccc2ccccc12)NC(=O)CCc1ccc(F)cc1)C(=O)N[C@@H](CCCNC(=N)N)C(=O)N1CCC[C@H]1C(=O)N[C@H](C)C(N)=O` [Example 6, 3-(4-Fluorophenyl)propionyl-D-Nal(1)^1-Ser^4-N-Me-Tyr^5-D-Lys (Atz)^6-Leu^7-Arg^8-Pro^9-D-Ala^10-NH2] ({Propanoyl(3-(4-F-phenyl))}-[d1Nal]S[NMeY][dK](Triazole(1,2,4-3-CO,5-NH))LRP[dA]-NH2) gave an IC50 of 0.221 nM.

In turn, `CCCC[C@H](NC(=O)[C@@H](CCCCNC(=O)CCC(=O)Nc1ccc(C(=N)N)cc1)NC(=O)[C@H](Cc1ccc(O)cc1)N(C)C(=O)[C@H](CO)NC(=O)[C@@H](Cc1cccnc1)NC(=O)[C@@H](Cc1ccc(Cl)cc1)NC(=O)[C@@H](Cc1ccc2ccccc2c1)NC(C)=O)C(=O)N[C@@H](CCCNC(=N)N)C(=O)N1CCC[C@H]1C(=O)N(C)CC(N)=O` [Example 7, Ac-D-Nal(2)^1-D-Cpa^2-D-Pal(3)^3-Ser^4-N-Me-Tyr^5-D-Lys(B)^6-Nle^7-Arg^8-Pro^9-Sar^10-NH2] (Ac-[d2Nal][dPhe(4-Cl)][d3Pal]S[NMeY][dK]([Suc-NH(4-amidinophenyl)])[Nle]RP[Sar]-NH2) yielded an IC50 of 1.3 nM. This IC50 lies about 5.9-fold higher than the previous one. `CCCC[C@H](NC(=O)[C@@H](CCCCNC(=O)CCC(=O)Nc1ccc(C(=N)N)cc1)NC(=O)[C@H](Cc1ccc(O)cc1)N(C)C(=O)[C@H](CO)NC(=O)[C@@H](Cc1cccnc1)NC(=O)[C@@H](Cc1ccc(Cl)cc1)NC(=O)[C@@H](Cc1ccc2ccccc2c1)NC(C)=O)C(=O)N[C@@H](CCCNC(=N)N)C(=O)N1CCC[C@H]1C(=O)N[C@H](C)C(N)=O` [Example 8, Ac-D-Nal(2)^1-D-Cpa^2-D-Pal(3)^3-Ser^4-N-Me-Tyr^5-D-Lys(B)^6-Nle^7-Arg^8-Pro^9-D-Ala^10-NH2] (Ac-[d2Nal][dPhe(4-Cl)][d3Pal]S[NMeY][dK]([Suc-NH(4-amidinophenyl)])[Nle]RP[dA]-NH2) displayed an IC50 of 1.4 nM. The molecule `CCCC[C@H](NC(=O)[C@@H](CCCCNC(=O)CCC(=O)Nc1ccc(C(=N)N)cc1)NC(=O)[C@H](Cc1ccc(O)cc1)N(C)C(=O)[C@H](CO)NC(=O)[C@@H](Cc1cccnc1)NC(=O)[C@@H](Cc1ccc(Cl)cc1)NC(=O)[C@@H](Cc1ccc2ccccc2c1)NC(C)=O)C(=O)N[C@@H](CCCCNC(C)C)C(=O)N1CCC[C@H]1C(=O)N(C)CC(N)=O` [Example 9, Ac-D-Nal(2)^1-D-Cpa^2-D-Pal(3)^3-Ser^4-N-Me-Tyr^5-D-Lys(B)^6-Nle^7-Lys(iPr)^8-Pro^9-Sar^10-NH2] (Ac-[d2Nal][dPhe(4-Cl)][d3Pal]S[NMeY][dK]([Suc-NH(4-amidinophenyl)])[Nle][Lys(iPr)]P[Sar]-NH2) registered an IC50 of 4.7 nM.

The values are drawn from patent US7732412B2, “Methods of treatment using novel LHRH antagonists having improved solubility properties” (Zentaris GmbH, priority 1999, dated 2010).
